How the values were obtained:
[1] = test system: P. falciparum K1 strain; experiment: P. falciparum K1 dose-response, 72 h, SYBR Green-based plate reader assay; type: cell-based; conditions: Plasmodium falciparum
Procedure: We set up drug efficacy assays for the eight lead compounds 1–5, 12–14 (selected based on the best antimalarial activities) (Table 1), with 72 h incubation on parasitised culture. A dose–response experiment was initiated on 1% synchronous culture at the ring stages of the P. falciparum K1 strain. The selected compounds were tested at three-fold serial dilutions from 6.86 to 5000 nM. […] The selectivity indices (IC50 human cells/IC50 parasites) were calculated based on the 72 h exposure studies and are presented in Table 2.
(§1) In total, 1% of infected RBCs at the ring or trophozoites stage was exposed to nine dilutions (four-fold serial dilution) of compounds from 50 mM stock solutions in DMSO. A total of 100 µL of culture volume was added in 96-well plates with 100 µL drug dilutions. Plates were either incubated for 48 h or 72 h at 37 °C, 5% CO2, 5% O2 in N2. Following the incubation, 150 µL of the medium was carefully removed and 150 µL of the 5× SYBR Green solution (prepared by adding 2 µL of 10,000× SYBR Green in 4 mL of PBS) was added to each well. Plates were kept in the dark for 45 min. Fluorescence intensity was measured using a microplate reader (Genius Tecan) with an excitation of 485 nm and an emission of 535 nm.
(§2) IC50 values were determined using Graph Pad Prism 5.0. Values were calculated using non-linear regression by using log-transformed drug concentration plotted against dose–response. Parasitaemia was calculated and normalised relative to the response on the controls (cultures without drug).

[2] = test system: P. falciparum K1 strain; experiment: P. falciparum K1 asexual growth inhibition, 48 h, SYBR Green-based plate reader assay; type: cell-based, Plasmodium falciparum; conditions: K1 strain, trophozoite stage, 48 h incubation; for IC50: Plasmodium falciparum, read-out: Plasmodium IC50 ± SE
Procedure: Sixteen 4-amino-6-methoxy-quinoline hydrazone compounds (see Figure S1, Supplementary Materials for full structures), with methyl and phenyl substituents at the 2-position (R = Me, Ph) and various substituents at R’ (Table 1), were tested for their antimalarial activities. A 1% parasitised culture at the trophozoite stage was treated with the compounds for 48 h at concentrations of 0.003050–200 µM (four-fold serial dilution) against the P. falciparum K1 strain, and the growth was measured using the SYBR Green-based plate reader assay.
as §1, §2

[3] = MTT cytotoxicity assay, HepG2; type: cell-based, Human; conditions: human, HepG2 cells; MTT, 5 days; read-out: Cell Toxicity IC50 ± SE HepG2
Procedure: (§3) An MTT (3-(4,5-dimethylthiazol-2-yl)-2,5-diphenyl tetrazolium bromide) assay was performed to investigate the toxicity of the 4-aminoquinoline hydrazone compounds. HepG2 and MDBK cells were incubated with a two-fold serial dilution at dose ranges from 0.39 to 25 µM for 5 days.
(§4) Human hepatoma (HepG2) and the Madin–Darby bovine kidney (MDBK) cell lines were purchased from American Type Culture Collection (ATCC), USA. The MDBK cell line was cultured with Dulbecco’s Modified Eagle’s Medium (DMEM) containing 4.5 g/L (+)-D-glucose and L-glutamine, while the HepG2 cell line was cultured with RPMI 1640 containing 2 mM L-glutamine and HEPES. The culture medium was supplemented with 10% Fetal Bovine Serum (FBS) and 1% penicillin. Cells were maintained in the presence of 5% CO2 atmosphere at 37 °C. The assay was carried out on a 96-well plate, with each well containing 4 × 10^3 cells. Plates were firstly incubated for 24 h at 37 °C to ensure cell adherence. The cells were then treated with 100 µL of the drug solution prepared at various concentrations and further incubated for 5 days. After the incubation period, 50 µL of the MTT (3-(4,5-dimethylthiazol-2-yl)-2,5-diphenyltetrazolium bromide, Sigma, UK) solution was added to each well and incubated for a further 3 h. The MTT solution and medium were aspirated, 150 µL of DMSO was added to each well, and the results were read on the Ascent plate reader.

[4] = test system: HepG2 cells; experiment: MTT cytotoxicity assay, HepG2; type: cell-based, Human; conditions: HepG2 IC50 (5 days) / K1 72 h IC50; IC50 = 25 μM assumed for compound 13
Procedure: as §3, §4

[5] = MTT cytotoxicity assay, MDBK; type: cell-based, bovine; conditions: bovine, MDBK cells; MTT, 5 days; read-out: Cell Toxicity IC50 ± SE MDBK
Procedure: as §3, §4

[6] = test system: MDBK cells; experiment: MTT cytotoxicity assay, MDBK; type: cell-based, bovine; conditions: MDBK IC50 (5 days) / K1 72 h IC50; IC50 = 25 μM assumed for compounds 5 and 13
Procedure: as §3, §4

[7] = test system: P. falciparum Dd2 strain; experiment: P. falciparum Dd2 dose-response, 72 h, SYBR Green-based plate reader assay; type: cell-based; conditions: Plasmodium falciparum, ring stage, read-out: Dd2 IC50 ± SE
Procedure: (§5) The lead compounds 1 and 2 were further evaluated against the chloroquine-resistant P. falciparum Dd2 strain and chloroquine-sensitive P. falciparum 3D7. The drug activity assay was initiated on 1% infected blood at ring stages of the parasites at four-fold serial dilution from 0.00305 to 200 µM. The growth was measured after 72 h using an SYBR Green-based plate reader assay.
as §1

[8] = test system: P. falciparum 3D7; experiment: P. falciparum 3D7 dose-response, 72 h, SYBR Green-based plate reader assay; type: cell-based; conditions: Plasmodium falciparum, ring stage, read-out: 3D7 IC50 ± SE
Procedure: as §5, §1

[9] = test system: P. yoelii NL
Procedure: We next assessed the antimalarial activity of compound 2 in vivo within a P. yoelii NL murine model of blood-stage malaria. […] Two dosages of the drug were tested, 5 mg/kg and 20 mg/kg (intravenous tail vein injection), while another group of mice was administered with the drug vehicle alone (Figure 3). The lead compound 2 was injected once a day for 4 days, starting at day 11 when the infection level reached ~5% parasitaemia. Mice were monitored for a total of 20 days in order to detect signs of infection rebound or eventual toxicity.
C57BL/6 mice were purchased from Charles River, UK, and were maintained at the University of Manchester in individually ventilated cages. A total of six mice were used for this experiment and kept in the cage (two in each cage) with randomisation of mice given antimalarial drugs and vehicle control. The mice were maintained in individually ventilated cages with food and water ad libitum. Male and females were kept within separate cages during the course of the experiment. The mice generally weighed 18–20 g at the start of the experiment. Cryopreserved P. yoelii NL parasites were passed once through mice before the infection experiment. Male/female mice 6–10 weeks in age were infected with 1 × 10^4 parasitised red blood cells (pRBCs) via intravenous injection in the tail vein. Parasitaemia growth was monitored via Giemsa-stained blood smears. Three groups of mice (placebo, drug dose of 5 mg/kg or 20 mg/kg) were used for this experiment. Compound 2 was injected once a day for 4 days starting at the day the infection level reached ~5% parasitaemia. After the injection, mice were monitored for 20 days to detect eventual signs of both infection rebound and toxicity.

[10] = test system: P. falciparum K1 cultures; experiment: Time-course assay, SYBR Green flow cytometer method; type: cell-based, Plasmodium falciparum; conditions: IC50 doses, 24, 48, 72 h
Procedure: A panel of compounds were selected based on activity and progressed in the time-course assay to define the activity timelines of the compounds. The assay was performed on 1% unsynchronised P. falciparum K1 cultures treated with previously determined IC50 (Table 1) doses of the lead compounds for 24, 48, and 72 h. […] It was also observed that the activity of the compounds became more pronounced as the time progressed up until 72 h of exposure.
The time-course assay was used to define the activity timelines of the 4-aminoquinoline hydrazone compounds. Parasite growth of K1 strain P. falciparum in the presence of 4-aminoquinoline hydrazone compounds was assessed on asynchronous culture. The growth impairment of K1 culture was initiated at 1% parasitaemia for 24, 48, and 72 h. The assay was analysed by flow cytometry as described below.
Following drug efficacy experiments, 100 µL from the control and drug-treated samples on a 96-well plate were transferred to a micro-centrifuge tube containing 1 mL of PBS. The samples were centrifuged at 1200 rpm for 2 min. […] The pellet was re-suspended in PBS (1 mL) and parasitaemia was determined by SYBR Green fluorescence using the FITC channel of the BD FACs Verse flow cytometer system (Blue laser, excitation laser line 488 nM Exmax 494/EMmax 520 nM) and cell size (forward scatter, FSC-A). […]

[11] = test system: P. falciparum K1 strain; experiment: Stage specificity assay; type: cell-based, Plasmodium falciparum; conditions: 50–100 times IC50, 24 h exposure, wash-out, further 24 h
Procedure: The stage specificity was evaluated by conducting drug susceptibility experiments on synchronous cultures either at early rings or schizonts stages (as detailed in the Section 4). […] Cultures were exposed to drug treatment for 24 h, after which the compounds were washed out and incubated in complete RPMI medium for a further 24 h.
P. falciparum K1 was synchronised twice with 5% sorbitol at 0 h and 31 h to obtain early rings (up to 3 h old). In order to obtain late trophozoites to early schizonts, the culture was synchronised twice at 0 h and 6 h. Each synchronous stage was diluted to 1% parasitaemia. […] The dilution ranged from 1.6 to 100× fold of the previously determined IC50 of each compound in a standard 48 h assay. After a 24 h incubation period, the plates were washed 4 times resulting in about a 100-fold dilution of the free compound. The plates were further incubated for an additional 24 h at 37 °C and analysed using SYBR Green staining assays as previously described.

[12] = ring stage, 72 h incubation, read-out: Plasmodium IC50 ± SE

| Compound | IC50 [1, 12] [µM] | IC50 [2] [µM] | IC50 at 5 days [3] [µM] | Selectivity Indices (HepG2) [4] | IC50 at 5 days [5] [µM] | Selectivity Indices (MDBK) [6] | other results |
| --- | --- | --- | --- | --- | --- | --- | --- |
| COc1ccc2nc(C)cc(N/N=C/c3ccc(F)cc3)c2c1 [Compound 1] | 0.0257 | 0.612 ± 0.35 | 0.872 ± 0.79 | 34 | 3.77 ± 1.5 | 147 | IC50 ([1]; 72 h, read-out: IC50): 0.025 µM; IC50 [7]: 0.133 µM; IC50 [8]: 0.183 µM |
| COc1ccc2nc(C)cc(NN=Cc3ccccc3)c2c1 [Compound 2, 4-(2-benzylidenehydrazinyl)-6-methoxy-2-methylquinoline] | 0.0329 ± 0.007 | 2.26 ± 2.2 | 1.9 ± 0.11 | 58 | 3.44 ± 2.7 | 101 | IC50 ([1]; 72 h, read-out: IC50): 0.032 µM; Signs of toxicity in treated mice ([9]; 5 and 20 mg/kg i.v., monitored over three weeks): no detectable signs of significant toxicity; Effect on parasitaemia, 20 mg/kg and 5 mg/kg ([9]; P. yoelii NL-treated mice): suppression of parasitaemia; Parasitaemia after drug treatment was suspended ([9]; mice, 5 mg/kg and 20 mg/kg i.v. once a day for 4 days): less than 4%; Effect on parasitaemia, 5 mg/kg ([9]; mice, 5 mg/kg i.v. once a day for 4 days): delayed activity; IC50 [7]: 0.0244 µM; IC50 [8]: 0.0554 µM |
| COc1ccc2nc(C)cc(N/N=C/c3cccnc3)c2c1 [Compound 3] | 0.175 ± 0.04 | 3.29 ± 1.6 | 3 ± 0.27 | 17 | 7.34 ± 7.6 | 42 | Onset of activity in time-course [10]: delayed activity |
| COc1ccc2nc(C)cc(N/N=C/c3cccc(OC)c3O)c2c1 [Compound 5] | 0.174 ± 0.03 | 3.82 | 6.73 ± 0.73 | 39 | > 25 | >143 | Inhibition of parasitaemia growth, schizont stage [11]: more than 25% |
| COc1ccc2nc(C)cc(N/N=C/c3ccc(O)cc3)c2c1 [Compound 8] |  | 22.3 | 1.97 ± 0.42 |  | 3.73 ± 1.2 |  |  |
| COc1ccc2nc(C)cc(N/N=C/c3ccc(C(=O)O)cc3)c2c1 [Compound 9] |  | > 200 | > 25 |  | > 25 |  | Plasmodium IC50 ± SE [2]: inactive |
| COc1ccc2nc(C)cc(N/N=C/c3cc(O)cc(O)c3)c2c1 [Compound 11] |  | 35.9 ± 43 | 11.1 ± 2.9 |  | > 25 |  |  |
| COc1ccc2nc(-c3ccccc3)cc(N/N=C/c3ccc([N+](=O)[O-])cc3)c2c1 [Compound 14] | 0.176 ± 0.06 | 2.2 ± 1.5 | 0.89 ± 0.13 | 5 | 4.24 ± 1 |  | Inhibition of parasitaemia growth, schizont stage [11]: more than 25% |
| COc1ccc2nc(-c3ccccc3)cc(N/N=C/c3c[nH]cn3)c2c1 [Compound 15] |  | 28.3 ± 29 | 2.21 ± 0.15 |  | 9.31 ± 3.5 |  |  |
| COc1ccc2nc(-c3ccccc3)cc(N/N=C/c3ccc(N(C)C)cc3)c2c1 [Compound 16] |  | 8.06 ± 4.5 | 4.15 ± 2.4 |  | 6.24 |  |  |

Continued, in another order:

| IC50 [1, 12] [µM] | IC50 [2] [µM] | Compound | IC50 at 5 days [3] [µM] | Selectivity Indices (HepG2) [4] | IC50 at 5 days [5] [µM] | Selectivity Indices (MDBK) [6] | other results |
| --- | --- | --- | --- | --- | --- | --- | --- |
|  | 48.8 | COc1ccc2nc(C)cc(N/N=C/c3c[nH]cn3)c2c1 [Compound 6] | 7.26 ± 1 |  | 11.7 ± 2.5 |  |  |
|  | 20.1 | COc1ccc2nc(C)cc(N/N=C/c3ccc([N+](=O)[O-])cc3)c2c1 [Compound 7] | 1.69 |  | 6.68 ± 1.7 |  |  |
|  | 18.9 | COc1ccc2nc(C)cc(N/N=C/c3cccc(O)c3)c2c1 [Compound 10] | 2.64 ± 0.2 |  | 9.71 ± 3.5 |  |  |
| 0.133 ± 0.06 | 5.67 ± 13 | COc1ccc2nc(-c3ccccc3)cc(N/N=C/c3cccc(OC)c3O)c2c1 [Compound 12] | 1.8 ± 0.78 | 14 | 6.6 | 50 |  |
